The target in data set [1] is Neurolysin, mitochondrial (Rattus norvegicus, UniProt P42676). As to the kind of experiment: Activation of recombinant rat Neurolysin using QFS as substrate incubated for 10 mins.
The nature of data set [2]: Permeability coefficient across apical to basolateral side in mouse BEND3 cells co-cultured with mouse primary astrocytes incubated for 120 mins by LC-MS/MS analysis. In kind it is ADME, cell-based. To be noted: bend3, 2 h.
Data set [3] in a line: Metabolic stability in mouse brain homogenate assessed as half life measured upto 240 mins by LC-MS/MS analysis. In kind it is ADME, tissue-based. Particulars: 4 h.
Data set [4] in a line: Metabolic stability in mouse plasma assessed as half life measured upto 240 mins by LC-MS/MS analysis. Type of data set: ADME, cell-free.
Data set [5] concerns the target Angiotensin-converting enzyme (Homo sapiens) (UniProt P12821). As to the kind of experiment: Inhibition of recombinant human ACE catalytic activity measured up to 150 uM.
Data set [6] concerns the target Thimet oligopeptidase (Homo sapiens) (UniProt P52888). As to the kind of experiment: Inhibition of recombinant human THOP catalytic activity using Mca-Pro-Leu-Gly-Pro-D-Lys(DNP)-OH as substrate.
Data set [7] addresses Neprilysin (Homo sapiens) (UniProt P08473). The data set can be described thus: Inhibition of recombinant human NEP catalytic activity using Mca-Arg-Pro-Pro-Gly-Phe-Ser-Ala-Phe-Lys(Dnp)-OH as substrate.
Data set [8] has as its target Angiotensin-converting enzyme 2 (Homo sapiens) (UniProt Q9BYF1). The data set can be described thus: Inhibition of recombinant human ACE2 catalytic activity at 300 uM using Mca-Ala-Pro-Lys-(Dnp)-OH as substrate.

Calls of active or inactive are those of the source. No cut-off for these calls is given here. Square brackets hold non-standard residues; d marks the D form. Peptide text beside a SMILES is read from it. * marks the point of attachment. Boc = CC(C)(C)OC(=O)*

The EC50 is the concentration at which the effect is half-maximal. For orientation: half-life means how long it takes for the measured level to halve.

Chain of Neurolysin, mitochondrial (P42676 whole entry): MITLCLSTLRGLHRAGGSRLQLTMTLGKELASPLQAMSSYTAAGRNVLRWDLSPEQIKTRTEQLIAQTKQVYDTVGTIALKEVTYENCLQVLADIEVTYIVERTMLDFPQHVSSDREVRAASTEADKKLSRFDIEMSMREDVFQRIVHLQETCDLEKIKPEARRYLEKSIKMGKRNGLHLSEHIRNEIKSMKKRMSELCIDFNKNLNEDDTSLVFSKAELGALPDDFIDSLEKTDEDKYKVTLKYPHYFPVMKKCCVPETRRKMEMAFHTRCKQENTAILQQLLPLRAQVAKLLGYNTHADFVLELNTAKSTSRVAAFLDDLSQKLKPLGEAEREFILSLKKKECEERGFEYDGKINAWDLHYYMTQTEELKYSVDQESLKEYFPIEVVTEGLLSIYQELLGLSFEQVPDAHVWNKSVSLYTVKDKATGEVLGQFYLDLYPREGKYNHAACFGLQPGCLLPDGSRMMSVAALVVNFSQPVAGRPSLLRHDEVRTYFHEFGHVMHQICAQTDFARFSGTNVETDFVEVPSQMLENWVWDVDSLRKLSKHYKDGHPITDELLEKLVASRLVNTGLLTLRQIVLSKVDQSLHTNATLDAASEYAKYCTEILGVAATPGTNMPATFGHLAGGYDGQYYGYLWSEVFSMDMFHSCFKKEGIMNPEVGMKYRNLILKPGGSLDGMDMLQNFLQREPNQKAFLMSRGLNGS
Chain of Neprilysin (Homo sapiens) (P08473 whole entry): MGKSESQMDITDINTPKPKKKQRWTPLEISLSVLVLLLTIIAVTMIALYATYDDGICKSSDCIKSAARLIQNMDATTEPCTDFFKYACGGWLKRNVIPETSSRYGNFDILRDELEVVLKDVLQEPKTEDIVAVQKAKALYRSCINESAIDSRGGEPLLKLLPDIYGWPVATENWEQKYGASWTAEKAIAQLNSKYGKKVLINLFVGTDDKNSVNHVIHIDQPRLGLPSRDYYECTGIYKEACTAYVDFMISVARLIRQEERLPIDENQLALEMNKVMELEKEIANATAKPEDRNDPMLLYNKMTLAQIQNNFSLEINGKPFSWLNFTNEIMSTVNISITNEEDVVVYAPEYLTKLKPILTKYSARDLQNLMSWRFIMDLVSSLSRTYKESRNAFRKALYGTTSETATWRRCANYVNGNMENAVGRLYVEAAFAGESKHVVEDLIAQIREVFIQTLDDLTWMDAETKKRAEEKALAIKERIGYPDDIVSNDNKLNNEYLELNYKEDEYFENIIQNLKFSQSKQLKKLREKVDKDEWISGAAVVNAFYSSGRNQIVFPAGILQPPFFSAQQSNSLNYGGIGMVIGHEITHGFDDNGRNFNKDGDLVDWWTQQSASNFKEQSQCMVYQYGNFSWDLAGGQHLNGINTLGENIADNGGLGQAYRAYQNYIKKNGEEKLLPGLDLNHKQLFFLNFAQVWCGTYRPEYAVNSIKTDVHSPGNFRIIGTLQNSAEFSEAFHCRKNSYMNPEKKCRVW
Chain of Angiotensin-converting enzyme 2 (Homo sapiens) (Q9BYF1 18-805 limits assumed): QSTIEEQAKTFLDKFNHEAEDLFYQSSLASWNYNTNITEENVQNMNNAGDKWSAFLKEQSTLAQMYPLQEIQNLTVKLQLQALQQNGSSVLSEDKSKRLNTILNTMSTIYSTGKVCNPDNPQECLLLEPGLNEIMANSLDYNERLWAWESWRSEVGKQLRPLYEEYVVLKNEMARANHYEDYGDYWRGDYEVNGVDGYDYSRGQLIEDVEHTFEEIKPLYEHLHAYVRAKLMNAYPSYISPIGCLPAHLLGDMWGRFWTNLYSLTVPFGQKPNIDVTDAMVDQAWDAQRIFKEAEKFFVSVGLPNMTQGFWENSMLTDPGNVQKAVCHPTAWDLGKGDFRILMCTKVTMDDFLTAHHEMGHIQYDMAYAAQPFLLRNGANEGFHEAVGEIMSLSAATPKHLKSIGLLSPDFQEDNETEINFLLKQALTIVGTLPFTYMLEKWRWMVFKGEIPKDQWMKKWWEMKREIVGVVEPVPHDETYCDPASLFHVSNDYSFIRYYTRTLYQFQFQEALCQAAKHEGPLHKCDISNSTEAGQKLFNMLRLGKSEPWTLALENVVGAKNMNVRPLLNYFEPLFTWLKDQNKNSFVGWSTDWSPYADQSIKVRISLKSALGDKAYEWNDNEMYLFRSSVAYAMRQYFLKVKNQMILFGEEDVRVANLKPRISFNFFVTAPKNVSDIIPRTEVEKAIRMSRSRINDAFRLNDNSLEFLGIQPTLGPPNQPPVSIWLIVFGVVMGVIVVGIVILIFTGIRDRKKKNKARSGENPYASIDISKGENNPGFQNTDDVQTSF
Chain of Angiotensin-converting enzyme (Homo sapiens) (P12821 whole entry): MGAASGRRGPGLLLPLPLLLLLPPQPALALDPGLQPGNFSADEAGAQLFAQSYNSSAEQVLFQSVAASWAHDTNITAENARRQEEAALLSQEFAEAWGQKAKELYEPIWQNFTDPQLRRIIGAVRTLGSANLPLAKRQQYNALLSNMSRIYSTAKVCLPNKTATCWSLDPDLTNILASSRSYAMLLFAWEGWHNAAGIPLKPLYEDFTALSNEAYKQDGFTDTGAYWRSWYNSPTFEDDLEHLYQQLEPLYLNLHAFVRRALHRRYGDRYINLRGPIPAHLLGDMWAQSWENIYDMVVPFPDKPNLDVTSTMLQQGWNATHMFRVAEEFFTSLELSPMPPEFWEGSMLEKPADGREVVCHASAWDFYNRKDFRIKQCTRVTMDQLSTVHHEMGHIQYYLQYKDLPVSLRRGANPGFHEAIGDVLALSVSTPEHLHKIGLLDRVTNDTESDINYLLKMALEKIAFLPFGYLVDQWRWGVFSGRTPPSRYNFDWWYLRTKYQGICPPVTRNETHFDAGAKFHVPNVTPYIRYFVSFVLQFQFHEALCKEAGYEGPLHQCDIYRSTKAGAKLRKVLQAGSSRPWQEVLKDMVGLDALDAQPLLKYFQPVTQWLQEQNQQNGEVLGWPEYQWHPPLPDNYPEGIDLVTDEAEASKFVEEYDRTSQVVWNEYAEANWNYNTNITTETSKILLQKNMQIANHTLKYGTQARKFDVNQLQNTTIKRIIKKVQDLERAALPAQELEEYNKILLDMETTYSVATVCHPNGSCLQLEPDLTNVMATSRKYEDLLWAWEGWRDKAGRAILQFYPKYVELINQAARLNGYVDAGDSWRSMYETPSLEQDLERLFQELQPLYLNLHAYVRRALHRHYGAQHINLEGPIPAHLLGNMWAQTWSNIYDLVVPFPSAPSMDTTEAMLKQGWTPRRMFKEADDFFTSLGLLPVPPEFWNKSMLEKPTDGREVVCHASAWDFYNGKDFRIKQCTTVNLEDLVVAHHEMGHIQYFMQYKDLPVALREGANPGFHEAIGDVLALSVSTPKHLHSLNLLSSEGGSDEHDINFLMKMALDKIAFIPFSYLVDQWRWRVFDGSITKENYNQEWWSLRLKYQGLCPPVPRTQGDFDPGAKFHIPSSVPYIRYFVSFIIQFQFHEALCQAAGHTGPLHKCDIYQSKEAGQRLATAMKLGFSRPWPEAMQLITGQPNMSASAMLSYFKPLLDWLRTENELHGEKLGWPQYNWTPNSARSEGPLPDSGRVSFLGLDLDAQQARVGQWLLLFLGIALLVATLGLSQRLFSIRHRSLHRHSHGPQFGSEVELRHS
Chain of Thimet oligopeptidase (Homo sapiens) (P52888 whole entry): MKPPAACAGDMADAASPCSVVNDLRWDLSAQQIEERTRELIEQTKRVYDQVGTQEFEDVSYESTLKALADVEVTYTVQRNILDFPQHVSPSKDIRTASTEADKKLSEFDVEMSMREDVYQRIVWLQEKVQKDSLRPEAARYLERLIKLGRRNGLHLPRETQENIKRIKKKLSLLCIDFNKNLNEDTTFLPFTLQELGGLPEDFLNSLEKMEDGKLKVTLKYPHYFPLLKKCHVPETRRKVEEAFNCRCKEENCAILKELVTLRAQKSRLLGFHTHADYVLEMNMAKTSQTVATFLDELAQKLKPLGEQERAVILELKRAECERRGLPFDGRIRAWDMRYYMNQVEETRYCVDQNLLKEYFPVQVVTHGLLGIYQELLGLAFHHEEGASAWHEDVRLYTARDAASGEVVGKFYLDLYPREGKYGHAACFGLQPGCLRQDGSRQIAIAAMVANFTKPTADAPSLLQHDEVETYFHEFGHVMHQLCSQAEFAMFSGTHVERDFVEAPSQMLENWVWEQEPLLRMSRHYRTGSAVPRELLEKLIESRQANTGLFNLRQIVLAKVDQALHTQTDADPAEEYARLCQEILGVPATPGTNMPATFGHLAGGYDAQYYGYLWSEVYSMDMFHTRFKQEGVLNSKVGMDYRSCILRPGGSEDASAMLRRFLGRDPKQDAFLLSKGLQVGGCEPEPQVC

Consider `N[C@@H](Cc1c[nH]cn1)C(=O)NCCc1ccc(F)cc1`, for which the EC50 in data set [1] (read-out: EC50) is 11.6 µM.

Take `O=C(CCc1c[nH]cn1)NCCc1cc2ccccc2[nH]1`: in data set [1], the EC50 result was “Not Active”. On to `N[C@@H](Cc1c[nH]cn1)C(=O)N[C@@H](Cc1ccccc1)C(=O)O` (H-His-Phe-OH), for which the EC50 in data set [1] (read-out: EC50) came to 74.5 µM. With `N[C@@H](Cc1ccc(O)cc1)C(=O)N[C@H](Cc1c[nH]cn1)C(=O)O`, in data set [1], the EC50 result is “Not Active”. On to `N[C@@H](Cc1c[nH]cn1)C(=O)N[C@@H](Cc1ccc(O)cc1)C(=O)O` (H-His-Tyr-OH), for which the Kp in data set [2] was 0.21 10^-3cm/min. The t1/2 was determined as 1.03 min in data set [3] and 34.19 min in data set [4] (4 h). For the compound `N[C@@H](Cc1c[nH]cn1)C(=O)NCc1cccc2ccccc12`, the Kp in data set [2] is on record as 1.09 10^-3cm/min. Further, the inhibition result in data set [5], in data set [6], in data set [7] and in data set [8] was “inactive” throughout. Moreover, the t1/2 in data set [3] was 80.3 min. The half-life in data set [4] is greater than 1000 min. Regarding `CC(C)(C)OC(=O)N[C@@H](Cc1ccc(O)cc1)C(=O)N[C@H](Cc1ccccc1)C(=O)O` (Boc-Tyr-[dF]-OH), in data set [1], the EC50 result is given as “Not Active”.

Take `NC(Cc1c[nH]cn1)C(=O)NCc1cccc2cccnc12` (racemic): in data set [1] (read-out: EC50), the concentration for a half-maximal effect (EC50) was 5.8 µM. For `CC(C)(C)OC(=O)N[C@@H](Cc1c[nH]cn1)C(=O)NCCc1c[nH]c2ccccc12`, in data set [1], the EC50 entry was “Not Active”.

The values are drawn from ChEMBL document CHEMBL5236554 (J Med Chem, 2021).
